Test results reported in the supplement of paper PMC8253809.

Key:
DIPGX37 = H3.3 K27M diffuse intrinsic pontine glioma line; assay: growth inhibition relative to DMSO (0) and positive control (1) (fraction); higher = more growth inhibition
Method: (§1)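 Paxalisib (GDC0084) x mirdametinib (PD0325901) dose matrix on pHGG cell lines and astrocyte controls, 7 days, adherent 384-well. CellTiter-Glo RLU was normalised (no log2) to fractional activity between DMSO (0) and the positive control (1). Each combination was tested in two plate orientations.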

DIPGX7 = H3.3 K27M diffuse intrinsic pontine glioma line; assay: as above
Method: as §1

O=C(NOC[C@H](O)CO)c1ccc(F)c(F)c1Nc1ccc(I)cc1F + CC1(C)OCCn2c1nc1c(N3CCOCC3)nc(-c3cnc(N)nc3)nc12 [GDC0084]
growth inhibition
Conditions	compound 1 concentration 0.009766 µM	compound 1 concentration 0.01953 µM	compound 1 concentration 0.03906 µM	compound 1 concentration 0.07812 µM	compound 1 concentration 0.15625 µM	compound 1 concentration 0.3125 µM	compound 1 concentration 0.625 µM	compound 1 concentration 1.25 µM	compound 1 concentration 5 µM	compound 1 concentration 20 µM
DIPGX7, compound 2 concentration 0.03906 µM	-0.0325	-0.0312	-0.0934	-0.145	-0.164	-0.126	-0.119	0.0102	0.288	0.312
DIPGX7, compound 2 concentration 0.07812 µM	0.189	0.113	0.0974	0.0816	-0.0134	0.0326	0.0363	0.178	0.344	0.313
DIPGX7, compound 2 concentration 0.15625 µM	0.43	0.379	0.335	0.264	0.267	0.238	0.296	0.364	0.563	0.467
DIPGX7, compound 2 concentration 0.3125 µM	0.611	0.641	0.589	0.561	0.514	0.483	0.563	0.627	0.793	0.747
DIPGX7, compound 2 concentration 0.625 µM	0.781	0.802	0.8	0.791	0.779	0.782	0.841	0.884	0.941	0.918
DIPGX7, compound 2 concentration 1.25 µM	0.874	0.865	0.876	0.884	0.893	0.906	0.934	0.96	0.982	0.983
DIPGX7, compound 2 concentration 5 µM	0.937	0.933	0.938	0.962	0.972	0.98	0.99	0.999	1	1
DIPGX7, compound 2 concentration 20 µM	0.977	0.987	0.989	0.994	0.998	1	1	1	1	1
DIPGX37, compound 2 concentration 0.03906 µM	-0.0653	-0.109	0.00889	0.0388	0.199	0.341	0.484	0.642	0.948	0.988
DIPGX37, compound 2 concentration 0.07812 µM	0.157	0.133	0.163	0.275	0.352	0.487	0.599	0.725	0.959	0.993
DIPGX37, compound 2 concentration 0.15625 µM	0.264	0.281	0.316	0.412	0.485	0.618	0.728	0.829	0.983	0.997
DIPGX37, compound 2 concentration 0.3125 µM	0.446	0.454	0.5	0.586	0.657	0.767	0.859	0.926	0.997	1
DIPGX37, compound 2 concentration 0.625 µM	0.589	0.585	0.62	0.71	0.777	0.871	0.937	0.97	1	1
DIPGX37, compound 2 concentration 1.25 µM	0.75	0.791	0.815	0.864	0.908	0.951	0.976	0.996	1	1
DIPGX37, compound 2 concentration 5 µM	0.965	0.975	0.988	0.995	0.999	1	1	1	1	1
DIPGX37, compound 2 concentration 20 µM	0.996	0.998	0.998	0.996	0.998	0.997	0.997	0.997	0.998	1

CC1(C)OCCn2c1nc1c(N3CCOCC3)nc(-c3cnc(N)nc3)nc12 [GDC0084] + O=C(NOC[C@H](O)CO)c1ccc(F)c(F)c1Nc1ccc(I)cc1F [PD0325901]
growth inhibition
Conditions	compound 1 concentration 0.009766 µM	compound 1 concentration 0.01953 µM	compound 1 concentration 0.03906 µM	compound 1 concentration 0.07812 µM	compound 1 concentration 0.15625 µM	compound 1 concentration 0.3125 µM	compound 1 concentration 0.625 µM	compound 1 concentration 1.25 µM	compound 1 concentration 5 µM	compound 1 concentration 20 µM
DIPGX7, compound 2 concentration 0.03906 µM	-0.121	-0.103	-0.085	0.0493	0.217	0.56	0.762	0.886	0.945	0.998
DIPGX7, compound 2 concentration 0.07812 µM	-0.0496	9.09e-05	0.0209	0.0495	0.252	0.537	0.775	0.88	0.956	0.997
DIPGX7, compound 2 concentration 0.15625 µM	-0.0185	0.0149	0.038	0.0769	0.248	0.507	0.771	0.891	0.965	0.999
DIPGX7, compound 2 concentration 0.3125 µM	-0.0519	0.0198	0.0847	0.101	0.248	0.522	0.802	0.91	0.983	1
DIPGX7, compound 2 concentration 0.625 µM	0.0193	0.0541	0.102	0.141	0.301	0.534	0.825	0.938	0.992	1
DIPGX7, compound 2 concentration 1.25 µM	0.138	0.158	0.168	0.231	0.351	0.606	0.868	0.961	0.998	1
DIPGX7, compound 2 concentration 5 µM	0.215	0.278	0.311	0.354	0.555	0.784	0.933	0.986	1	1
DIPGX7, compound 2 concentration 20 µM	0.18	0.195	0.238	0.323	0.539	0.765	0.933	0.988	1	1
DIPGX37, compound 2 concentration 0.03906 µM	-0.147	-0.0916	-0.0557	0.033	0.217	0.429	0.588	0.762	0.979	1
DIPGX37, compound 2 concentration 0.07812 µM	-0.0133	0.012	0.0971	0.209	0.356	0.514	0.694	0.823	0.99	1
DIPGX37, compound 2 concentration 0.15625 µM	0.0798	0.113	0.192	0.297	0.433	0.58	0.744	0.879	0.999	1
DIPGX37, compound 2 concentration 0.3125 µM	0.186	0.271	0.3	0.445	0.556	0.699	0.84	0.924	1	1
DIPGX37, compound 2 concentration 0.625 µM	0.277	0.368	0.441	0.522	0.6	0.787	0.891	0.948	1	1
DIPGX37, compound 2 concentration 1.25 µM	0.458	0.508	0.592	0.657	0.743	0.882	0.953	0.984	1	1
DIPGX37, compound 2 concentration 5 µM	0.832	0.876	0.906	0.917	0.94	0.986	1	1	1	1
DIPGX37, compound 2 concentration 20 µM	0.97	0.98	0.984	0.994	0.997	1	1	1	1	1
